Structures can show the parent of a compound that is named as a salt. Where two headings read alike, the source gives them in different places.
Experiments:
[1] = system: SUM149PT breast cancer cell line; experiment: CellTiter Glo cell viability / ZIP synergy in BRCA1mut model; assay type: cell-based; conditions: single agent at the same low nM doses
Experimental: FIGS. 2A-2B are charts showing the ZIP synergy score matrix in a BRCA1mut model treated with gemcitabine at low-nanomolar concentrations (15 nM) synergizing with camonsertib 7.5 nM (2 days on (FIG. 2A) or 3 days on (FIG. 2B)). ZIP synergy scores greater than 10 indicate drug synergy and scores less than −10 indicates antagonism. Mean CTG cell viability data from 3 independent experiments were processed with SynergyFinder (https://synergyfinder.fimm.fi/; PMIDs: 35580060, 26949479). Dotted lines indicated doses exerting maximum synergy.
FIGS. 3A-3B show the synergy of gemcitabine with camonsertib in a BRCA1 mut model. […] FIG. 3B is a graph of the viability of the SUM149PT treated with the indicated compounds and schedules. Data (circles) from three independent experiments is provided with mean (bars)±SD. The P value calculated with an unpaired two-tailed Student's t-test. Cell viability was read out at day 8 with a CellTiter Glo (CTG) assay.
To assess the synergy between camonsertib and gemcitabine in a BRCA1-mutated cancer cell model in vitro, a SUM149PT breast cancer cell line was employed. The combination was administered at various dosing schedules—1, 2, or 3 day treatment with camonsertib combined with a single 4 h dose of gemcitabine (FIG. 3A).

[2] = system: SUM149PT BRCA1 mutated xenograft; assay type: in vivo; conditions: single agents at low doses: camonsertib 10 mg/kg PO 3 days on/4 days off; gemcitabine 20 mg/kg QW; 28 days
Experimental: The relative tumor xenograft volume (FIG. 4A) and change in body weight in mice treated (FIG. 4B) is shown for mice treated with gemcitabine at 20 mg/kg QW on Day 1 and/or camonsertib at 10 mg/kg PO on different schedules weekly for 28 days. Results are expressed as mean±SEM, N=7/group in female NOD-SCID mice. Statistical differences were established by Student's T-test (GraphPad Prism v9) with Welch's correction; ns=not significant, *p<0.05, **p<0.01.
A xenograft model was employed to assess the effect of camonsertib in combination with gemcitabine on tumor formation in an animal model. Mice harboring established tumors were treated with a vehicle control, camonsertib (10 mg/kg once per day with 3 days on/4 days off), gemcitabine (20 mg/kg once per week), or a combination of both camonsertib (once per day selected from 3 days on/4 days off, 2 days on/5 days off, or 1 day on/6 days off) and gemcitabine (once per week) for 28 days.
Relative tumor xenograft volume of the mice treated with gemcitabine at 20 mg/kg QW on Day 1 and/or camonsertib at 10 mg/kg PO on different schedules weekly for 28 days is shown in FIG. 4A and the change in body weight is shown in FIG. 4B. Results are expressed as mean±SEM, N=7/group in female NOD-SCID mice. Statistical differences were established by Student's T-test (GraphPad Prism v9) with Welch's correction; ns=not significant, *p<0.05, **p<0.01.

[3] = maximum tolerated dose in mice; assay type: in vivo
[4] = humans, cited from earlier work

Compound | cell viability (CTG, day 8) [1] | anti-tumor activity (relative tumor xenograft volume) [2] | MTD [3] | MTD ([3]; mouse, in vivo, read-out: MTD) | mean gemcitabine peak plasma concentration ([4]; 800 mg/m^2) | mean gemcitabine peak plasma concentration ([4]; 1000 mg/m^2)
C[C@@H]1COCCN1c1cc([C@]2(O)C[C@H]3CC[C@@H](C2)O3)c2cnn(-c3cc[nH]n3)c2n1 [camonsertib, (1R,5S)-3-[6-[(3R)-3-methylmorpholin-4-yl]-1-(1H-pyrazol-5-yl)pyrazolo[3,4-b]pyridin-4-yl]-8-oxabicyclo[3.2.1]octan-3-ol] | only modest effect | reduced activity | 30 mg/kg |  |  | 
Nc1ccn([C@@H]2O[C@H](CO)[C@@H](O)C2(F)F)c(=O)n1 [gemcitabine, 2-Deoxy-2,2-difluorocytidine hydrochloride] | only modest effect | reduced activity |  | 100 mg/kg | 24 µM | 32 µM

Source: US20250090539A1, “COMBINATION TREATMENT OF CANCERS” (Repare Therapeutics Inc., priority 2023, published 2025)
